Here are results for twelve compounds from patent publication US20130059830A1, “NOVEL PROLYLCARBOXYPEPTIDASE INHIBITORS” (priority 2010, published 2013).

The target of one experiment is T1, human PrCP (Homo sapiens, UniProt P42785).
T1 construct: made in house
T1 sequence (P42785 46-496): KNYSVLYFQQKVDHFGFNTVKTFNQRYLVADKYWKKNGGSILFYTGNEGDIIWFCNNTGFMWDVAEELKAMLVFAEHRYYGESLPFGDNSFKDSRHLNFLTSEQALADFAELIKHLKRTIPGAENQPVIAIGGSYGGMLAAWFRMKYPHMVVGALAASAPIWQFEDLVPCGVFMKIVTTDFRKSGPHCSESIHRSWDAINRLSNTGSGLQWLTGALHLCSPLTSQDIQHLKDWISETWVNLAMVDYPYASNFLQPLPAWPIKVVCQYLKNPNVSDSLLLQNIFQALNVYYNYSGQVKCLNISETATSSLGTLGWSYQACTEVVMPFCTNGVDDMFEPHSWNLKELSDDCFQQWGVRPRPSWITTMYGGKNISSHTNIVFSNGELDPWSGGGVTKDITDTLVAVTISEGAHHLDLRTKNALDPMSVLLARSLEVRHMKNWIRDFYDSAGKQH
Nature of the experiment: Prolylcarboxypeptidase (PRCP) enzyme activity assay, fluorescence intensity kinetic assay, human enzyme. Type of experiment: biochemical. To be noted: recombinant human PrCP, 15 uM substrate, pH 5.5, 37° C. As for the experimental part: The potency of compounds of formula I against PrCP was determined by a fluorescence intensity kinetic assay measuring the IC50 values of PrCP inhibitor test compounds. […] The assay was run on a Perkin Elmer Envision 2103 plate reader using a 320 nm excitation filter and a 405 emission filter. The assay was performed using a Hamilton Star liquid handling workstation. The assay employed the internally quenched fluorescent substrate (1S)-1-carboxy-5-[(2,4-dinitrophenyl)amino]pentyl N-[(7-methoxy-2-oxo-2H-chromen-4-yl)acetyl]-L-alanyl-L-prolinate prepared in house.
The assay was run in a 384-well microtiter plate at 37° C. with a total volume of 50 uL. Final assay concentrations were 0.13 nM human PrCP (CHO) or 0.09 nM mouse PrCP (CHO) enzyme, 15 uM substrate and varying concentrations of inhibitor in buffer containing 10 mM NaOAc, 100 mM NaCl and 19.5 ug/mL BSA at pH 5.5. The assay also contained 2% DMSO used to solubilize the substrate and inhibitor. Inhibitors were prepared in 100% DMSO and serial diluted (in 100% DMSO) to generate 11 point titration curves. Either 39 uL of human or mouse PrCP enzyme was added to the wells of the assay plate, followed by a 1 uL addition of the serially diluted inhibitor and mixed three times using a 30 uL mix volume. The reaction was initiated by the addition of 10 uL substrate and mixed three times using a 30 uL mix volume. The reactions were monitored continuously over 25 min at 37° C. to obtain initial velocities. […] values were calculated by comparing the resulting rates of reaction of the inhibited and control initial velocities.
The enzymes were diluted in a mixture of 10 mM NaOAc (pH 5.5)/100 mM NaCl buffer containing 25 ug/mL bovine serum albumin that had been warmed to 37° C. in a water bath. The PrCP inhibitor test compounds were plated in 100% DMSO with a highest concentration of 500 uM. There were 12 dilution points for each compound tested including a blank with DMSO only. The test compounds from the source titration plate were transferred into the assay reaction plate at a 1:50 dilution using the Hamilton Star workstation and mixed, resulting in a final concentration for the test compounds in the range of 10,000 to 0.066 nM. Likewise, two control compounds were similarly titrated and included in each assay, with final starting concentrations starting at 10,000 nM and 200 nM, respectively. The reaction was initiated by the addition of 75 uM of the (1S)-1-carboxy-5-[(2,4-dinitrophenyl)amino]pentyl N-[(7-methoxy-2-oxo-2H-chromen-4-yl)acetyl]-L-alanyl-L-prolinate substrate, which was diluted in a mixture of 10 mM NaOAc (pH 5.5)/100 mM NaCl that had been warmed to 37° C. in a water bath, dispensed using the Hamilton Star workstation and mixed. The substrate was solubilized in 100% DMSO prior to dilution into the assay. The final assay concentrations in the 50 uL reactions were 15 uM of (1S)-1-carboxy-5-[(2,4-dinitrophenyl)amino]pentyl N-[(7-methoxy-2-oxo-2H-chromen-4-yl)acetyl]-L-alanyl-L-prolinate substrate, 0.13 nM Human PrCP (CHO) or 0.09 nM Mouse PrCP (CHO), and 2% DMSO.
As for `Fc1ccc(-c2cc([C@H]3CC[C@H](c4ccccc4)NC3)n(-c3ncccn3)n2)cc1` (mixture of isomers) [Example 4], the IC50 was found to be 4.1 nM. Same read-out and setting: the same measure for `COC(=O)N1C[C@@H](c2cc(-c3ccc(Cl)cc3)nn2-c2ncccn2)CC[C@@H]1c1ccccc1` (mixture of isomers) [Example 13]: 1.3 nM. As to `CNC(=O)N1C[C@@H](c2cc(-c3ccc(F)cc3)nn2-c2ncccn2)CC[C@@H]1c1ccccc1` (mixture of isomers) [Example 95], the IC50 turned out to be 10 nM. In the case of `CC(C)(C)OC(=O)N1C[C@H](c2cc(-c3ccc(F)cc3)nn2-c2ncccn2)CC[C@@H]1CCc1ccccc1` (racemic) [Example 5, tert-Butyl 5-[3-(4-fluorophenyl)-1-(pyrimidin-2-yl)-1H-pyrazol-5-yl]-2-(2-phenylethyl)piperidine-1-carboxylate], the IC50 came to 8 nM. The same measure, in the same setting: then `Fc1ccc(-c2cc([C@@H]3CC[C@H](CCc4ccccc4)NC3)n(-c3ncccn3)n2)cc1` (racemic) [Example 6, 2-{3-(4-Fluorophenyl)-5-[6-(2-phenylethyl)piperidin-3-yl]-1H-pyrazol-1-yl}pyrimidine], with 2.1 nM. Turning to `Clc1ccc(-c2cc(C3CNC(CCc4ccccc4)CO3)n(-c3ncccn3)n2)cc1` (single isomer, unassigned) [Example 8, 2-[3-(4-Chlorophenyl)-1-(pyrimidin-2-yl)-1H-pyrazol-5-yl]-5-(2-phenylethyl)morpholine], the IC50 amounted to 12 nM. Turning to `O=C(Cc1cccc2ccccc12)N1CCCC(c2cc(-c3ccc(F)cc3)nn2-c2ncccn2)C1` (stereo not shown) [Example 17], the IC50 worked out at 1.2 nM. For `O=C(Cc1ccccc1C(F)(F)F)N1CCCC(c2cc(-c3ccc(F)cc3)nn2-c2ncccn2)C1` (stereo not shown) [Example 20], the IC50 was determined as 0.65 nM.

For `O=C(CC1CCCCC1)N1CCCC(c2cc(-c3ccc(F)cc3)nn2-c2ncccn2)C1` (stereo not shown) [Example 36], the IC50 is 30 nM.

With `O=C(NCCc1ccc(F)cc1)N1CCCC(c2cc(-c3ccc(F)cc3)nn2-c2ncccn2)C1` (stereo not shown) [Example 82], the IC50 is 27 nM.

As to `O=S(=O)(CCC(F)(F)F)N1CCCC(c2cc(-c3ccc(F)cc3)nn2-c2ncccn2)C1` (stereo not shown) [Example 109], the IC50 stood at 4.5 nM.

The subject of a further experiment is rats.
Experiment: not given
As to conditions: intracerebroventricular; cited from earlier work.
As for t-butyl carbamate-prolyl prolinal [BPP], the overnight food intake result is listed as “suppression of overnight food intake”.

Another experiment concerns obese, leptin deficient mice.
Experiment: not given
As to conditions: systemic administration; cited from earlier work.
Take t-butyl carbamate-prolyl prolinal [BPP]: the overnight food intake entry is “suppression of overnight food intake”.

In general, IC50 refers to the concentration at which inhibition is half-maximal.
